How the values were obtained:
[1] = system: P. aeruginosa PAO1; assay type: in vivo
Procedure: Mice were sacrificed on day one or day three post-infection and the contents of bacteria in the lungs were determined. Open squares indicate bacterial lung content per lung for each individual mouse. The median values are indicated with a filled black square. The statistic significance of difference in clearance was tested by a Mann-Whitney U test (analysis of nonparametric data) and p-values for the difference at day one and day three were 0.9 and 0.002 respectively.
In this study ajoene was administered prophylactic and subsequently continued after infection. Injections were given subcutaneous in the peritoneum. We performed three individual in vivo treatment experiments with ajoene in the mouse model of pulmonary infection using the P. aeruginosa PAO1. BALB/c mice were intracheally challenged (at day 0) with alginate beads containing 1.5×10^8 CFU/ml P. aeruginosa. The two groups of mice were either untreated (placebo) or treated with ajoene 25 μg/g mouse once a day. The mice were given two days of prophylactic treatment or placebo prior to bacterial challenge. Treatment was continued for three days. […] When combining the experiments a significant difference on day three was seen (p<0.002) with a 500 fold difference in clearance between the groups (FIG. 7). This is concordant with the results obtained by Bjarnsholt et al (2005) in a similar lung infection model in with raw garlic extract was used as treatment [T. Bjarnsholt et al., Microbiology, 2005, 151, p. 3873-3880].
This highlights that a synthesis providing a sufficiently pure “crude” ajoene product is essential in order to avoid the use of HPLC purification, as this step has a detrimental effect on biological activity. […] (E,Z) ajoene having an E:Z ratio of 1:4 was used.

[2] = system: P. aeruginosa; details: E:Z=1:4 isomer used; cited from earlier work
[3] = system: P. aeruginosa genes; assay: DNA microarray, number of genes regulated by ajoene treatment; assay type: cell-based
Procedure: DNA microarray analysis was used to identify genes regulated by ajoene treatment. As a reference we have used the QS regulon previously identified by Hentzer et al., [M. Hentzer et al., EMBO J., 2003, 22, p. […] Exponential growing P. aeruginosa cultures were treated with the following four concentrations of ajoene; 10 μg/ml (42.7 μM), 20 μg/ml (85.4 μM), 40 μg/ml (170.8 μM) and 80 μg/ml (341.6 μM). (E,Z) ajoene having an E:Z ratio of 1:4 was used. […] The samples were retrieved at an OD600 nm of 2.0 (optical density) because previous investigations have shown the highest activity among the QS genes at that cell density. Gene expression of the treated cultures was compared to an untreated control.
In general, there was only a small number of genes that were down regulated more than 5 fold by the four different concentrations of ajoene; 0 genes at 10 μg/ml ajoene, 0 genes at 20 μg/ml ajoene, 2 genes at 40 μg/ml ajoene and 11 genes at 80 μg/ml ajoene. […] According to our experimental settings, expression of 10 out of the total number of 163 QS controlled P. aeruginosa genes (according to Hentzer et al., [M. Hentzer et al., EMBO J., 2003, 22, p. 3803-3815]) was down regulated by the ajoene treatments. A concentration of 80 μg/ml ajoene affects expression of 11 out of a total of 5570 P. aeruginosa genes. Ajoene is therefore highly specific for a subclass of QS controlled genes (Table 3).

[4] = system: rhlA; assay: RT-PCR verification of the microarray data; assay type: cell-based, P. aeruginosa; details: 80 μg/ml ajoene; E:Z 1:4
Procedure: (§1) To verify the microarray data, RT-PCR was performed with two of the key QS genes; lasB and rhlA (see FIG. 3). When comparing the two methods the repression of both the lasB and rhlA gene expression follow the same trend, with a general slightly increase in fold reduction observed with the RT-PCR based method. […] The expression of rhlA is primarily controlled by the Rhl QS system and the signal molecule BHL whereas the expression of lasB is affected by both the Las and the Rhl QS systems and the concentration of the signal molecules OdDHL and BHL. According to Rasmussen et al., [Rasmussen et al., Microbiology, 2005, 151, p. 1325-1340], the genes listed in table 3 are (except prpL which regulation is entirely governed by the Las QS system) subject to regulation by both the Las and Rhl QS systems. […] (E,Z) ajoene having an E:Z ratio of 1:4 was used in these experiments.

[5] = system: lasB; assay: RT-PCR verification of the microarray data; assay type: cell-based, P. aeruginosa; details: 80 μg/ml ajoene; E:Z 1:4
Procedure: as §1

[6] = system: P. aeruginosa biofilms exposed to PMNs; assay: Flow chamber biofilm exposed to PMNs, propidium iodide staining; assay type: cell-based; details: biofilm grown four days in the presence of 100 μg/ml ajoene; E:Z 1:4
Procedure: A) The biofilm has grown without ajoene in the medium. B) The biofilm has grown in the presence of 100 μg/mL ajoene in the medium. Red fluorescence indicates necrotic PMN's leaking out their content of DNA (as stained by PI). Green fluorescence indicates top areas of the P. aeruginosa biofilm.
Biofilms exposed to PMN leukocytes produce rhamnolipids that function as a shield and protects the biofilm bacteria from phagocytosis. […] 20-42]. The P. aeruginosa biofilms were grown for four days either in the presence or absence of 100 μg/ml ajoene. When PMNs subsequently were introduced in the flow chambers on top of the biofilms grown in the absence of ajoene, propidium iodide (PI) staining indicated necrosis of the PMNs (FIG. 5A). […] Ajoene treatment therefore rescues the PMN leukocytes by blocking biofilm synthesis of […]. It has previously been shown that rescued PMN's can phagocytose biofilm bacteria [T. Bjarnsholt et al., Microbiology, 2005, 151, p. 3873-3880]. (E,Z) ajoene having an E:Z ratio of 1:4 was used.

For C=CCSSC=CC[S+]([O-])CC=C (centres unmarked) [ajoene, (E,Z)-4,5,9-trithiadodeca-1,6,11-triene-9-oxide], the “difference in clearance between treated and placebo groups” value ([1]; day three, 25 μg/g mouse once a day subcutaneous, two days prophylactic, three experiments combined) is listed as 500 fold, the “tolerability of the administered dosage” value ([1]; mouse, in vivo) is listed as “tolerated well” and the “growth inhibitory effect on P. aeruginosa” value [2] is listed as “no measurable growth inhibitory effect”. The “number of genes down regulated more than 5 fold” value ([3]; 10 μg/ml ajoene) was 0 genes, the “number of genes down regulated more than 5 fold” value ([3]; 20 μg/ml ajoene) was 0 genes and the “number of genes down regulated more than 5 fold” value ([3]; 40 μg/ml ajoene) was 2 genes. The “number of genes down regulated more than 5 fold” value ([3]; 80 μg/ml ajoene, out of a total of 5570 P. aeruginosa genes) was 11 genes, the “number of QS controlled P. aeruginosa genes down regulated by the ajoene treatments” value ([3]; out of the total number of 163 QS controlled genes (Hentzer et al.)) was 10 genes and the “lowering of expression of rhlA (RT-PCR)” value [4] was about 12 fold. The “lowering of expression of lasB (RT-PCR)” value [5] was about 5 fold and the “necrosis of PMNs on biofilm (PI staining)” value [6] was “no necrosis of the PMNs was observed”.

— US10603289B2, “Process for the manufacture of ajoene derivatives” (DANMARKS TEKNISKE UNIVERSITET, priority 2010, dated 2020)
